Measured values reported in US20070128217A1 (priority 2003, published 2007).

Assays:
[1] = tested on: rabbit serum obtained by immunizing a rabbit with the SARS-CoV strain Frankfurt 1; format: binding; design: Binding of a rabbit serum to linear peptides / Binding of a rabbit serum to looped peptides / Rabbit serum linear peptides / Rabbit serum looped peptides / Binding of a rabbit serum to linear peptides of protein N of SARS-CoV Urbani (Rabbit serum linear peptides) / Binding of a rabbit serum to looped/cyclic peptides of protein N of SARS-CoV Urbani (Rabbit serum looped peptides): unit not given here
[2] = tested on: recombinant human anti-SARS-CoV antibody 03-018; format: binding; design: Binding of antibody 03-018 to linear peptides of the N protein of SARS-CoV Urbani / Binding of antibody 03-018 to looped/cyclic peptides of the N protein of SARS-CoV Urbani: unit not given here
[3] = tested on: control sera (pooled serum of ten healthy LUMC hospital workers; commercial negative donor pooled serum from the Dutch bloodbank); format: binding, human; design: Binding of Control serum LUMC to linear peptides / Binding of Control serum Blood-bank to linear peptides / Binding of Control serum LUMC to looped peptides / Binding of Control Serum Blood-Bank to Looped peptides / Binding of Control serum LUMC to linear peptides of the protein M of SARS-CoV Urbani / Binding of Control serum Blood-bank to linear peptides of the protein M of SARS-CoV Urbani / Binding of Control serum LUMC to looped peptides of the protein M of SARS-CoV Urbani / Binding of Control Serum Blood-Bank to Looped peptides of the protein M of SARS-CoV Urbani: unit not given here
[4] = tested on: antibodies in sera from SARS patients (sera 1a, 1b, 2, 6, 37, 62, London, SARS-yellow, SARS-green); format: binding, human; design: Binding of serum 6 to linear peptides of protein X1 of SARS-CoV Urbani / Binding of serum 37 to linear peptides of protein X1 of SARS-CoV Urbani / Binding of serum 6 to looped/cyclic peptide (PEPSCAN-ELISA) / Binding of serum 37 to looped/cyclic peptide (PEPSCAN-ELISA) / Binding of serum 37 to looped/cyclic peptides of protein X1 of SARS-CoV Urbani / Binding of serum 6 to linear peptides of protein X2 / Binding of serum 37 to linear peptides of protein X2 / Binding of serum 37 to looped/cyclic peptides of protein X2 of SARS-CoV Urbani / Binding of serum 6 to linear peptides of protein M of SARS-CoV Urbani / Binding of serum 37 to linear peptides of protein M of SARS-CoV Urbani / Binding of serum 6 to looped/cyclic peptides of protein M of SARS-CoV Urbani / Binding of serum 37 to looped/cyclic peptides of protein M of SARS-CoV Urbani / Binding of serum 6 to linear peptides of protein X3 of SARS-CoV Urbani / Binding of serum 37 to linear peptides of protein X3 of SARS-CoV Urbani / Binding of serum 37 to looped/cyclic peptides of protein X3 of SARS-CoV Urbani / Binding of serum 6 to linear peptides of protein X4 of SARS-CoV Urbani / Binding of serum 37 to linear peptides of protein X4 of SARS-CoV Urbani / Binding of serum 37 to looped/cyclic peptides of protein X4 of SARS-CoV Urbani / Binding of serum 6 to linear peptides of protein X5 of SARS-CoV Urbani / Binding of serum 37 to linear peptides of protein X5 of SARS-CoV Urbani / Binding of serum 37 to looped/cyclic peptides of protein X5 of SARS-CoV Urbani / Binding of serum 6 to linear peptides of protein N of SARS-CoV Urbani / Binding of serum 37 to linear peptides of protein N of SARS-CoV Urbani / Binding of serum 6 to linear peptide (PEPSCAN-ELISA) / Binding of serum 1a to looped/cyclic peptides of protein N of SARS-CoV Urbani / Binding of serum 1b to looped/cyclic peptides of protein N of SARS-CoV Urbani / Binding of serum 2 to looped/cyclic peptides of protein N of SARS-CoV Urbani / Binding of serum 6 to looped/cyclic peptides of protein N of SARS-CoV Urbani / Binding of serum 37 to looped/cyclic peptides of protein N of SARS-CoV Urbani / Binding of serum 62 to looped/cyclic peptides of protein N of SARS-CoV Urbani / Binding of serum London to looped/cyclic peptides of protein N of SARS-CoV Urbani / Binding of serum SARS-green to looped/cyclic peptides of protein N of SARS-CoV Urbani: unit not given here

Sequence	Binding of a rabbit serum to linear peptides of protein N of SARS-CoV Urbani (Rabbit serum linear peptides) [1]	Binding of a rabbit serum to looped/cyclic peptides of protein N of SARS-CoV Urbani (Rabbit serum looped peptides) [1]	Binding of antibody 03-018 to linear peptides of the N protein of SARS-CoV Urbani [2]	Binding of antibody 03-018 to looped/cyclic peptides of the N protein of SARS-CoV Urbani [2]	Binding of Control Serum Blood-Bank to Looped peptides [3]	Binding of Control serum Blood-bank to linear peptides [3]	Binding of Control serum LUMC to linear peptides [3]	Binding of Control serum LUMC to looped peptides [3]	Binding of serum 1a to linear peptides of protein N of SARS-CoV Urbani [4]	Binding of serum 1a to looped/cyclic peptides of protein N of SARS-CoV Urbani [4]	Binding of serum 1b to linear peptides of protein N of SARS-CoV Urbani [4]	Binding of serum 1b to looped/cyclic peptides of protein N of SARS-CoV Urbani [4]	Binding of serum 2 to linear peptides of protein N of SARS-CoV Urbani [4]	Binding of serum 2 to looped/cyclic peptides of protein N of SARS-CoV Urbani [4]	Binding of serum 6 to looped/cyclic peptides of protein N of SARS-CoV Urbani [4]	Binding of serum 37 to looped/cyclic peptides of protein N of SARS-CoV Urbani [4]	Binding of serum 62 to looped/cyclic peptides of protein N of SARS-CoV Urbani [4]	Binding of serum London to looped/cyclic peptides of protein N of SARS-CoV Urbani [4]	Binding of serum SARS-green to looped/cyclic peptides of protein N of SARS-CoV Urbani [4]	Binding of serum SARS-yellow to looped/cyclic peptides of protein N of SARS-CoV Urbani [4]	other results
RRATRRVRGGDGKMK	0.6	0.1	0.1	0.2	0.4	0.8	0.8	0.3	0.2	0.2	0.1	0.1	0.3	0.1	0.1	0.4	0.3	0.2	0.0	0.2	Binding of serum 6 to linear peptides of protein N of SARS-CoV Urbani [4]: 0.3; Binding of serum 37 to linear peptides of protein N of SARS-CoV Urbani [4]: 0.8; Binding of serum 62 to linear peptides of protein N of SARS-CoV Urbani [4]: 0.7; Binding of serum London to linear peptides of protein N of SARS-CoV Urbani [4]: 0.5; Binding of serum SARS-green to linear peptides of protein N of SARS-CoV Urbani [4]: 0.3; Binding of serum SARS-yellow to linear peptides of protein N of SARS-CoV Urbani [4]: 0.6
RRGPEQTQGNFGDQD	0.1	0.1	0.1	0.2	0.3	0.6	0.6	0.4		0.3		0.2		0.2	0.1	0.4	0.2	0.2	0.6	0.4	Recognition of the peptide by sera of SARS-CoV infected individuals, and form (linear, looped/cyclic) in which it is recognized [4]: recognized in linear form
RSSSRSRGNSRNSTP	0.1	0.2	0.1	0.2	0.4	0.9	0.8	0.4		0.2		0.2		0.2	0.1	0.5	0.3	0.3	0.2	0.3	Binding of serum 1a to linear peptide (PEPSCAN-ELISA) [4]: 0.3; Binding of serum 1b to linear peptide (PEPSCAN-ELISA) [4]: 0.1; Binding of serum 2 to linear peptide (PEPSCAN-ELISA) [4]: 0.2; Binding of serum 6 to linear peptide (PEPSCAN-ELISA) [4]: 0.2; Binding of serum 37 to linear peptide (PEPSCAN-ELISA) [4]: 0.5; Binding of serum 62 to linear peptide (PEPSCAN-ELISA) [4]: 0.6; Binding of serum London to linear peptide (PEPSCAN-ELISA) [4]: 0.5; Binding of serum SARS-green to linear peptide (PEPSCAN-ELISA) [4]: 0.2; Binding of serum SARS-yellow to linear peptide (PEPSCAN-ELISA) [4]: 0.5
RVRGGDGKMKELSPR	0.2	0.6	0.1	0.2	0.7	0.8	0.9	0.7	0.3	0.3	0.2	0.2	0.3	0.4	0.4	0.6	0.5	0.4	0.1	0.6	Binding of serum 6 to linear peptides of protein N of SARS-CoV Urbani [4]: 0.2; Binding of serum 37 to linear peptides of protein N of SARS-CoV Urbani [4]: 0.7; Binding of serum 62 to linear peptides of protein N of SARS-CoV Urbani [4]: 0.8; Binding of serum London to linear peptides of protein N of SARS-CoV Urbani [4]: 0.5; Binding of serum SARS-green to linear peptides of protein N of SARS-CoV Urbani [4]: 0.6; Binding of serum SARS-yellow to linear peptides of protein N of SARS-CoV Urbani [4]: 0.7
